# From patent publication US20130078718A1, “CONVERSION OF VASCULAR ENDOTHELIAL CELLS INTO MULTIPOTENT STEM-LIKE CELLS” (PRESIDENT AND FELLOWS OF HARVARD COLLEGE, priority 2010, published 2013)
# “Also recorded” adds a separate entry of the source.
# Legend:
# [1] = test system: Human umbilical vein endothelial cells (HUVECs) and human cutaneous microvascular endothelial cells (HCMECs); test: Endothelial-mesenchymal transition (EndMT) in endothelial cells: morphology, marker expression by immunoblotting, flow cytometry, real-time PCR, ELISA; type: cell-based; conditions: for FSP-1, α-SMA, and N-cadherin levels (immunoblotting) / VE-cadherin, CD31, and vWF levels (immunoblotting): 10 ng ml−1, 48 h; for EndMT-associated transcription factors Snail, Slug, ZEB-1, SIP-1, LEF-1, Twist (ELISA): 10 ng ml−1, compared to control cells; for FSP-1 and α-SMA levels (immunoblotting) / TIE-2 expression levels (immunoblotting) / VE-cadherin levels (immunoblotting) / co-staining for endothelial marker TIE2 and mesenchymal marker FSP-1 (fluorescence microscopy or flow cytometry) / expression of genes associated with EndMT (FSP-1, α-SMA, N-cadherin, fibronectin, Snail, Slug, ZEB-1, SIP-1, LEF-1, Twist), real-time quantitative PCR / cell morphology (DIC imaging): 10 ng/mL, 48 hours; for expression of genes associated with EndMT (FSP-1, α-SMA, N-cadherin, fibronectin, Snail, Slug, ZEB-1, SIP-1, LEF-1, Twist), real-time quantitative PCR: compared to control cells; for cell morphology (DIC imaging): serum free medium
# Experimental: Human umbilical vein endothelial cells (HUVEC) and human cutaneous microvascular endothelial cells (HCMEC) were provided by J. Bischoff (Children's Hospital Boston) and isolated as previously described^35. […] Cells were grown in culture using EGM-2 medium (Cambrex), containing 10% FBS and 1% Penicillin/Streptomycin, followed by human endothelial serum free medium (Gibco) 24 hours prior to all experimental conditions. Bone marrow derived mesenchymal stem cells (ScienCell Research Laboratories) were grown in mesenchymal stem cell medium (ScienCell Research Laboratories). Human corneal fibroblasts, from a stock initially provided by E. Hay (Harvard Medical School), were grown in RPMI medium, containing 10% FBS and 1% Penicillin/Streptomycin. Primary human osteoblasts, chondrocytes, and adipocytes and their respective growth media were obtained from Cell Applications Inc. Recombinant TGF-β2 and BMP4 proteins (R&D Systems) were added to the serum free culture medium for all relevant experiments at a concentration of 10 ng/mL. Cells were treated for 15 minutes to assess ALK2 phosphorylation, 1 hour to measure Smad5 phosphorylation, or 48 hours to induce EndMT. All experiments for this study were performed at minimum in triplicate.
# Immunoassays were performed using the following antibodies at concentrations (and using protocols) recommended by the respective manufacturers: FSP-1 (H00006275-M01; Stressgen), ALK2 (sc-5671), Phospho-tyrosine (sc-7020), VE-cadherin (sc-6458), TIE2 (sc-324, sc-9026), STRO-1 (sc-47733), CD44 (sc-71220), CD90 (sc-9163), Osteocalcin (sc-74495, sc-23790), SOX9 (sc-20095), COL2A1 (sc-59958, sc-52658), PPARγ2 (sc-22022; Santa Cruz Biotechnology), vWF (ab68545; Abcam); His (A00174; GenScript); α-SMA (A5228), β-actin (A1978; Sigma-Aldrich). Samples were run with Criterion precast SDS-PAGE Gels (Bio-Rad). HRP-conjugated IgG TrueBlot reagents (18-8814, 18-8816, 18-8817; eBioscience) were used at a dilution of 1:1000. TrueBlot IgG beads (eBioscience) were used for immunoprecipitation experiments. Alexa Fluor secondary antibodies (Invitrogen) were used at a dilution of 1:200. Images were acquired using a Nikon 80i fluorescence microscope.
# Endothelial cells were stained in suspension using antibodies against TIE2, FSP-1, STRO-1, and His (described above) and the protocols provided by their respective manufacturer. Flow cytometry was performed at the Harvard Medical School, Department of Pathology flow cytometry core facility using a FACSDCalibur (BD Biosciences) cell sorter isolating 30,000 cells per sample.
# RNA extractions were performed using the RNeasy Mini kit (Qiagen) and protocol. RNA samples were submitted to a core facility (Biopolymers Facility, Department of Genetics, Harvard Medical School) where real-time PCR experiments were conducted using the Syber Green PCR system (ABI) on an ABI 7500 cycler, with 40 cycles per sample. Cycling temperatures were as follows: denaturing 95° C.; annealing 60° C.; extension, 70° C. The following primers (Integrated DNA Technologies) were used: […]
# Human umbilical vein endothelial cells (HUVEC) and human cutaneous microvascular endothelial cells (HCMEC) isolated as previously described (35). […] Cells were grown in culture using EGM-2 medium (Cambrex), containing 10% FBS and 1% Penicillin/Streptomycin, followed by human endothelial serum free medium (Gibco) 24 h prior to all experimental conditions.
# HUVECs and HCMECs = test: In vivo multipotency: polylactic acid scaffolds with pre-treated endothelial cells implanted into nude mice; parameters: species or system immunodeficient nude mice; conditions: for co-expression of Qtracker label with osteocalcin, SOX9 or adiponectin in implants (immunohistochemistry): cells pre-labeled with quantum dots, pre-treated, implanted 6 weeks; for bone, cartilage or fat products in implanted scaffolds (alizarin red, alcian blue, oil red O): cells pre-treated, differentiation medium injected locally every 72 h for 6 weeks
# Experimental: Cells were grown in StemPro osteogenic, chondrogenic, or adipogenic culture medium (Invitrogen). Alkaline phosphatase staining was performed using the alkaline phosphatase kit and protocol (Sigma-Aldrich) on cultures grown in osteogenic medium for 7 d to detect osteoblasts. Alizarin Red (Sigma-Aldrich) staining was performed for 30 min on cultures grown in osteogenic medium for 21 d to detect matrix calcification. Alcian Blue (Sigma) staining was used to stain chondrocyte proteoglycans for 5 minutes in cultures grown in chondrogenic medium for 14 d. Oil Red O (Sigma-Aldrich) staining was performed for 15 min on cultures grown in adipogenic medium for 7 d. For in vivo analysis, endothelial cells were labeled with fluorescent quantum dots using the Qtracker 525 Cell Labeling Kit (Invitrogen). Cells were treated in culture to induce EndMT then absorbed into OPLA polylactic acid scaffolds (BD Biosciences). Scaffolds were surgically implanted subcutaneously into immunodeficient nude mice (Nu/Nu strain; Charles River Laboratories). Local injection of StemPro differentiation medium (described above) was performed in the area of the implants every 72 h for 6 weeks. Scaffolds were cryosectioned and stained with Alizarin Red, Alcian Blue, or Oil Red O as described above. All procedures were reviewed and approved by the Institutional Animal Care and Use Committee at Harvard Medical School.
# [2] = test system: human cutaneous microvascular endothelial cells (HCMEC); test: Differentiation into myocytes, cardiomyocytes and neurons (immunoblotting); type: cell-based; conditions: 10 ng/ml, 48 hours, then myogenic, cardiomyogenic or neurogenic medium 14 days
# Experimental: Cardiomyogenic medium was purchased from Millipore Inc., (SCM-102).
# Myogenic medium consisted of human endothelial serum-free medium supplemented with 5% horse serum, 0.1 μM dexamethasone, and 50 μM hydrocortisone (previously described by Gang et al, 2004).
# Neurogenic medium consisted human endothelial serum-free medium supplemented with 100 ng/ml bFGF (previously described by Jiang et al., 2002). Endothelial cells converted into mesenchymal stem-like cells by treatment with 10 ng/ml TGF-β2 for 48 hours were plated on fibronectin-coated polystyrene wells in the neurogenic medium.
Substance,effect on EndMT (stimulation) [1],"FSP-1, α-SMA, and N-cadherin levels (immunoblotting) [1]","VE-cadherin, CD31, and vWF levels (immunoblotting) [1]","EndMT-associated transcription factors Snail, Slug, ZEB-1, SIP-1, LEF-1, Twist (ELISA) [1]",FSP-1 and α-SMA levels (immunoblotting) [1],TIE-2 expression levels (immunoblotting) [1],VE-cadherin levels (immunoblotting) [1],co-staining for endothelial marker TIE2 and mesenchymal marker FSP-1 (fluorescence microscopy or flow cytometry) [1],"expression of genes associated with EndMT (FSP-1, α-SMA, N-cadherin, fibronectin, Snail, Slug, ZEB-1, SIP-1, LEF-1, Twist), real-time quantitative PCR [1]",cell morphology (DIC imaging) [1],"co-expression of Qtracker label with osteocalcin, SOX9 or adiponectin in implants (immunohistochemistry) (HUVECs and HCMECs)","bone, cartilage or fat products in implanted scaffolds (alizarin red, alcian blue, oil red O) (HUVECs and HCMECs)","VE-cadherin, FSP-1, CD44, CD90 expression in clonal populations (multiplex ELISA) ([1]; three clonal populations of HUVEC and HCMEC, 48 h)","expression of MyoD1, cardiac troponin I or neurofilament-L (immunoblotting) [2]"
"BMP4: Recombinant BMP4 protein (R&D Systems), ALK2 activating ligand, used at 10 ng/mL",stimulators of EndMT; also recorded: stimulate EndMT,increased,decreased,much higher,increased,remained unchanged; also recorded: remain constant,significantly decreased,staining for both,much higher,distinct change from cobblestone-like endothelial cell morphology to fibroblast-like morphology,"co-expression of the Qtracker with osteocalcin, SOX9, or adiponectin","formation of bone, cartilage, or fat products",–,–
"TGF-β2: Recombinant TGF-β2 protein (R&D Systems), ALK2 activating ligand, used at 10 ng/mL",stimulators of EndMT; also recorded: stimulate EndMT,increased,decreased,much higher,increased,remained unchanged; also recorded: remain constant,significantly decreased,staining for both,much higher,distinct change from cobblestone-like endothelial cell morphology to fibroblast-like morphology,"co-expression of the Qtracker with osteocalcin, SOX9, or adiponectin","formation of bone, cartilage, or fat products","decreased expression of VE-cadherin and increased expression of FSP-1, CD44, and CD90",did express these markers
